Assay results: the NIST ThermoML archive (doi:10.1021/je900757k)

Test: isobaric coefficient of expansion
Conditions: Liquid, DSC

CCCCCCCCCCCC [dodecane]
isobaric coefficient of expansion
Conditions	278.15 K	288.15 K	298.15 K	308.15 K	318.15 K	328.15 K	338.15 K	348.15 K
5000 kPa	0.000913 1/K	0.000925 1/K	0.00094 1/K	0.000953 1/K	0.000964 1/K	0.000975 1/K	0.000989 1/K	0.000999 1/K
10000 kPa	0.000896 1/K	0.000902 1/K	0.000916 1/K	0.000924 1/K	0.000932 1/K	0.000941 1/K	0.00095 1/K	0.000958 1/K
15000 kPa	0.000874 1/K	0.000881 1/K	0.000893 1/K	0.000899 1/K	0.000908 1/K	0.000913 1/K	0.000918 1/K	0.000921 1/K
20000 kPa	0.000854 1/K	0.00086 1/K	0.000869 1/K	0.000874 1/K	0.000876 1/K	0.000884 1/K	0.000888 1/K	0.000891 1/K
25000 kPa	0.000838 1/K	0.000842 1/K	0.000848 1/K	0.00085 1/K	0.000851 1/K	0.000859 1/K	0.000863 1/K	0.000863 1/K
30000 kPa	0.000821 1/K	0.000826 1/K	0.000827 1/K	0.000831 1/K	0.000831 1/K	0.000835 1/K	0.000838 1/K	0.000837 1/K
35000 kPa	0.000805 1/K	0.000806 1/K	0.000807 1/K	0.00081 1/K	0.000809 1/K	0.000813 1/K	0.000815 1/K	0.000813 1/K
40000 kPa	0.000786 1/K	0.00079 1/K	0.000788 1/K	0.000792 1/K	0.000787 1/K	0.000791 1/K	0.000788 1/K	0.00079 1/K
45000 kPa	0.000772 1/K	0.000778 1/K	0.000775 1/K	0.000773 1/K	0.000768 1/K	0.000774 1/K	0.000773 1/K	0.00077 1/K
50000 kPa	0.00076 1/K	0.000761 1/K	0.00076 1/K	0.000755 1/K	0.000754 1/K	0.000757 1/K	0.000754 1/K	0.000753 1/K
55000 kPa	0.000751 1/K	0.000745 1/K	0.000744 1/K	0.000745 1/K	0.000739 1/K	0.000742 1/K	0.00074 1/K	0.000737 1/K

CCCCCCCCC [nonane]
isobaric coefficient of expansion
Conditions	278.15 K	288.15 K	298.15 K	308.15 K	318.15 K	328.15 K	338.15 K	348.15 K
5000 kPa	0.001 1/K	0.00103 1/K	0.00105 1/K	0.00106 1/K	0.00108 1/K	0.0011 1/K	0.00113 1/K	0.00114 1/K
10000 kPa	0.000977 1/K	0.000997 1/K	0.00101 1/K	0.00103 1/K	0.00104 1/K	0.00106 1/K	0.00108 1/K	0.00109 1/K
15000 kPa	0.000954 1/K	0.000967 1/K	0.000984 1/K	0.000995 1/K	0.00101 1/K	0.00102 1/K	0.00103 1/K	0.00104 1/K
20000 kPa	0.000928 1/K	0.00094 1/K	0.000955 1/K	0.000962 1/K	0.00097 1/K	0.000984 1/K	0.000992 1/K	0.000998 1/K
25000 kPa	0.000907 1/K	0.000917 1/K	0.000927 1/K	0.000935 1/K	0.000941 1/K	0.000949 1/K	0.00096 1/K	0.000964 1/K
30000 kPa	0.000886 1/K	0.000898 1/K	0.000903 1/K	0.000912 1/K	0.000915 1/K	0.000921 1/K	0.000931 1/K	0.000931 1/K
35000 kPa	0.000868 1/K	0.000875 1/K	0.000878 1/K	0.000883 1/K	0.000889 1/K	0.000892 1/K	0.000899 1/K	0.0009 1/K
40000 kPa	0.000841 1/K	0.000853 1/K	0.000856 1/K	0.00086 1/K	0.000864 1/K	0.000865 1/K	0.000866 1/K	0.000869 1/K
45000 kPa	0.000827 1/K	0.000836 1/K	0.000839 1/K	0.000838 1/K	0.000841 1/K	0.000843 1/K	0.000846 1/K	0.000844 1/K
50000 kPa	0.000811 1/K	0.000819 1/K	0.000819 1/K	0.00082 1/K	0.000825 1/K	0.000822 1/K	0.000825 1/K	0.000823 1/K
55000 kPa	0.000803 1/K	0.000799 1/K	0.000803 1/K	0.000804 1/K	0.000806 1/K	0.000803 1/K	0.000807 1/K	0.000806 1/K

CCCCCCCCCCCCCCC [pentadecane]
isobaric coefficient of expansion
Conditions	298.15 K	308.15 K	318.15 K	328.15 K	338.15 K	348.15 K
5000 kPa	0.000896 1/K	0.000898 1/K	0.000901 1/K	0.000904 1/K	0.000914 1/K	0.000925 1/K
10000 kPa	0.000871 1/K	0.000873 1/K	0.000873 1/K	0.000873 1/K	0.000883 1/K	0.000886 1/K
15000 kPa	0.000848 1/K	0.000848 1/K	0.00085 1/K	0.000846 1/K	0.000846 1/K	0.000854 1/K
20000 kPa	0.000825 1/K	0.000824 1/K	0.000824 1/K	0.000823 1/K	0.000821 1/K	0.000826 1/K
25000 kPa	0.000805 1/K	0.000803 1/K	0.000803 1/K	0.000798 1/K	0.000798 1/K	0.000801 1/K
30000 kPa	0.000793 1/K	0.000786 1/K	0.000786 1/K	0.000781 1/K	0.000782 1/K	0.000783 1/K
35000 kPa	0.000772 1/K	0.000767 1/K	0.000764 1/K	0.000762 1/K	0.00076 1/K	0.000758 1/K
40000 kPa	0.000756 1/K	0.000751 1/K	0.000746 1/K	0.000744 1/K	0.000738 1/K	0.000737 1/K
45000 kPa	0.000742 1/K	0.000734 1/K	0.000731 1/K	0.000726 1/K	0.000724 1/K	0.00072 1/K
50000 kPa	0.00073 1/K	0.000721 1/K	0.000718 1/K	0.00071 1/K	0.00071 1/K	0.000705 1/K
55000 kPa	0.000717 1/K	0.000709 1/K	0.000705 1/K	0.000699 1/K	0.000697 1/K	0.000694 1/K
